Measurements as given in patent publication US20250161282A1, “PHARMACEUTICAL PYRIDYL COMPOSITIONS FOR TREATING AND PREVENTING DELAYED GRAFT FUNCTION” (Unicycive Therapeutics, Inc., priority 2023, published 2025).
Where a name gives a salt, the structure may show the parent alone. Read-outs that look alike come from different tables or passages of the source.

Tests used:
[1] = test system: rat bilateral ischemia/reperfusion (IR) model; experiment: rat bilateral ischemia/reperfusion (IR) model, oral Compound 8 (iodide salt); type: in vivo, male Sprague Dawley rats; conditions: for urine β2-MG levels and content compared with Group 2 (IR): iodide salt
Text: Animal models of IRI (ischemia reperfusion injury), DGF (delayed graft function), and AKI (acute kidney injury) mimic many features seen in human kidney allografts. […] In 2011, the FDA held a workshop to review the current state of knowledge related to the effects of IRI on outcomes in kidney transplantation in animal models. The FDA stated animal models have implicated maladaptive host responses to […]. The maladaptive responses are changes in hemodynamics, decrease in oxygen tension, mitochondrial dysfunction, tubular injury, inflammation, etc.
In the rat bilateral IR model, the bilateral renal pedicle was clamped for 45 min for ischemia and then the clamp is removed to allow reperfusion. […] Urine β2-MG levels and content of Group 2 were higher than those in Group 1. Compared with Group 2, Groups 3 and 4 had lower urine β2-MG levels and content (n=10/group) (FIG. 1; […] at 10 mg/kg dose and p<0.01 at 20 mg/kg dose—as per one-way ANOVA multiple comparison test).

[2] = Phase I study Part 2, multiple ascending doses (MAD), BID oral fasted; type: in vivo, human; conditions: for dose-proportionality of exposure from 40 mg to 80 mg (Cmax and AUC(0-tau)): Day 1, analyte = labelled substance; for Tmax at 5 days: read-out: median Tmax
Text: Part 2 of the study was a double-blind, randomized, placebo-controlled, MAD study.

[3] = clinical; conditions: both, human, plasma, oral
Method: (§1) In this Phase I study, the safety and tolerability of single ascending doses (SAD) of Compound 8 was administered to male and female subjects. The study was a single centre, double-blinded, placebo-controlled, randomized single ascending doses (SAD) and multiple ascending doses (MAD) study in healthy male and female subjects of non-childbearing potential.
(§2) Part 1 was a double-blinded, randomized, placebo-controlled, SAD study, including approximately 32 subjects in 4 cohorts of 8 subjects each (randomized to a ratio of 6 active and 2 placebo per cohort). The subjects received the regimens presented in Table A. The route of administration was oral and fasted.
(§3) Subjects received a single dose of Compound 8 Capsule or placebo in the morning following an overnight fast. For Regimen E, Period 2, cohort SAD 3 were readmitted to the clinical unit. There was a minimum 7-day washout between dosing occasions for Regimen C and Regimen E. Blood samples were collected at regular intervals for safety and PK analysis from Day −1 to discharge from the clinical unit.
(§4) In Part 1 of the study, subjects received a single oral doses of Compound 8 Capsule or placebo on one occasion in the fasted state, except for subjects in Cohort SAD 3 who received two single doses on two separate occasions. Doses ranged from 10 mg to 160 mg. In Part 2 of the study, subjects received single doses of Compound 8 Capsule or placebo BID for 4 consecutive days and once on Day 5 in the fasted state. Doses ranged from 40 mg to 80 mg.

[4] = Phase I study Part 1, single ascending doses (SAD), oral fasted
Method: as §1, §2, §3, §4

[5] = test system: unilateral IR model of AKI in rats; experiment: unilateral IR model of AKI in rats (kidney functional markers, tubular injury); type: in vivo, male SD (Sprague Dawley) rats; conditions: for BUN vs IR vehicle: p<0.0001 (FIG. 4); for serum creatinine: p<0.0001 (FIG. 9A)
Method: A total of […] male SD (Sprague Dawley) rats were divided into 10 groups each with 10 rats/group as detailed in the Table 3. The ischemia was induced in the left kidney using a small clamp (Sugita standard aneurysm clip holding force 145 g) that was placed on the renal vascular pedicle for 30 min for all groups except SHAM group.
All rats were housed in metabolic cages for the collection of 24-hour urine samples for ACR, NGAL and β2-MG levels. After 24 hours, rats were anaesthetized, and blood samples were collected for sCre, and BUN levels. The left kidney was collected and processed for histology for tubular injury scores.
A total of additional 10 male SD (Sprague Dawley) rats were used along with the Group 1 (No IR) and Group 2 (IR); and other Groups listed in the Tabel 3; and conducted the study. The ischemia was induced in the left kidney of those additional 10 rats using a small clamp (Sugita standard aneurysm clip holding force 145 g) that was placed on the renal vascular pedicle for 30 min.
Nicorandil at 10 mg/kg, was administered 30 minutes prior to the induction of ischemia via intraperitoneal (ip) administration to the additional 10 rats along with the groups listed in Table 3. All additional 10 rats were housed in metabolic cages for the collection of 24-hour urine samples for ACR. After 24 hours, rats were anaesthetized, and blood samples were collected for sCre. The left kidney was collected and processed for histology for tubular injury scores along with the other groups as detailed in Table 3.

[6] = nicorandil 10 mg; cited from earlier work
[7] = test system: contrast induced nephropathy; conditions: 10 mg BID dosing; cited from earlier work

CC(NC(=O)OC[n+]1cccc(C(=O)NCCO[N+](=O)[O-])c1)C1CCCCC1 (stereo in doubt) [Compound 8, (S)-1-(((1-cyclohexylethylcarbamoyl)oxy)methyl)-3-((2-(nitroxy)ethyl)carbamoyl)pyridine-1-ium iodide]
physical or behavioral abnormalities vs vehicle ([1]; 10 and 20 mg/kg oral): no physical or behavioral abnormalities
significant changes in body weight vs vehicle ([1]; 10 and 20 mg/kg oral): no
uACR vs vehicle ([1]; 10 and 20 mg/kg oral): no significant difference
urine albumin concentration or total amount vs vehicle ([1]; 10 and 20 mg/kg oral): no significant difference
urine creatinine concentration or total amount vs vehicle ([1]; 10 and 20 mg/kg oral): no significant difference
creatinine marker of kidney function ([1]; doses up to 20 mg/kg oral): did not appear to have a significant impact
histological markers of kidney function (histological scores for tubular injury) ([1]; doses up to 20 mg/kg oral): did not appear to have a significant impact
urine β2-MG levels and content compared with Group 2 (IR) ([1]; 10 mg/kg oral 1 hour prior to ischemia, p<0.5 (FIG. 1)): lower
urine β2-MG levels and content compared with Group 2 (IR) ([1]; 20 mg/kg oral 1 hour prior to ischemia, p<0.01 (FIG. 1)): lower
dose-proportionality of exposure from 40 mg to 80 mg (Cmax and AUC(0-tau)) [2]: approximate proportional increase
half-life at 5 day ([2]; both sexes, human, plasma, oral, Day 5, both doses, reliable in 3 out of the 10 profiles, read-out: individual plasma half-life): 1.11 to 1.42 h
Tmax at 5 days ([2]; both sexes, human, plasma, multiple oral doses 40 mg for 5 days): 1.5 h
Tmax at 5 days ([2]; both sexes, human, plasma, multiple oral doses 80 mg for 5 days): 1 h
Tmax [3]: 0.5 to 1.5 h
half-life [3]: 0.74 to 2.58 h
AUC(0-t) ([3]; 10 mg): > 0.127 ng·h/mL
Cmax ([3]; 10 mg): > 1.01 ng/mL
dose proportionality of peak and overall exposure (Cmax, AUC(0-last)) ([4]; 10 mg to 160 mg dose range): sub-proportional increase

CC(N)C1CCCCC1 (stereo not shown) [1-cyclohexylethylamine]
subjects with quantifiable concentrations ([2]; multiple oral dosing 40 mg or 80 mg Compound 8 for 5 days): all subjects
subjects with quantifiable concentrations ([2]; single dosing of Compound 8 Capsule 80 mg): all subjects
PK profiles ([4]; after Compound 8 10 mg, 20 mg and 40 mg dose levels): entirely BLQ
subjects with quantifiable concentrations ([4]; after Compound 8 160 mg): all subjects

C[C@@H](NC(=O)OC[n+]1cccc(C(=O)NCCO[N+](=O)[O-])c1)C1CCCCC1 [Compound 8, nitrate salt]
serum creatinine vs IR vehicle ([5]; 5 mg/kg/iv single dose 30 min prior to ischemia, p<0.0001 (FIG. 2C)): phenomenally reduced
BUN vs IR vehicle ([5]; 5 mg/kg/iv single dose 30 min prior to ischemia): phenomenally reduced
urinary ACR vs IR vehicle ([5]; 5 mg/kg/iv single dose 30 min prior to ischemia, p<0.001 (FIG. 3C)): phenomenally reduced
serum creatinine vs IR vehicle ([5]; 10 mg/kg/iv single dose 30 min prior to ischemia, p<0.0001 (FIG. 2C)): phenomenally reduced
BUN vs IR vehicle ([5]; 10 mg/kg/iv single dose 30 min prior to ischemia): phenomenally reduced
urinary ACR vs IR vehicle ([5]; 10 mg/kg/iv single dose 30 min prior to ischemia, p<0.001 (FIG. 3C)): phenomenally reduced
urinary ACR vs IR vehicle ([5]; 25 mg/kg/ip single dose 30 min prior to ischemia, p<0.01 (FIG. 3B)): significantly reduced
urinary ACR vs IR vehicle ([5]; 50 mg/kg/ip single dose 30 min prior to ischemia, p<0.001 (FIG. 3B)): significantly reduced
serum creatinine vs IR vehicle ([5]; 50 mg/kg/ip single dose 30 min prior to ischemia, p<0.05 (FIG. 2B)): significantly reduced
urinary ACR vs IR vehicle ([5]; 50 mg/kg/po single dose 30 min prior to ischemia, p<0.01 (FIG. 3A)): significantly reduced
urinary ACR vs IR vehicle ([5]; 100 mg/kg/po single dose 30 min prior to ischemia, p<0.001 (FIG. 3A)): significantly reduced
serum creatinine vs IR vehicle ([5]; 100 mg/kg/po single dose 30 min prior to ischemia, p<0.05 (FIG. 2A)): significantly reduced
proximal convoluted tubular injury scores ([5]; intraperitoneal high dose 50 mg/kg, preventive, p<0.0001 (FIG. 6B)): effective in lowering
tubular injury marker β2-MG (urinary) ([5]; intraperitoneal low dose 25 mg/kg, preventive, p<0.01 (FIG. 8)): effective in lowering
tubular injury/damage, histological images ([5]; intraperitoneal route (FIG. 7D)): moderately ameliorated
tubular injury marker NGAL (urinary) ([5]; intravenous high dose 10 mg/kg, preventive, p<0.0001 (FIG. 5B)): robustly effective in lowering
proximal convoluted tubular injury scores ([5]; intravenous high dose 10 mg/kg, preventive, p<0.0001 (FIG. 6C)): robustly effective in lowering
tubular injury marker NGAL (urinary) ([5]; intravenous low dose 5 mg/kg, preventive, p<0.0001 (FIG. 5B)): robustly effective in lowering
proximal convoluted tubular injury scores ([5]; intravenous low dose 5 mg/kg, preventive, p<0.0001 (FIG. 6C)): robustly effective in lowering
tubular injury/damage, histology ([5]; intravenous route, low and high doses (FIG. 6C, 7E)): markedly ameliorated
tubular injury marker NGAL (urinary) ([5]; oral high dose 100 mg/kg, preventive, p<0.0001 (FIG. 5A)): effective in lowering
proximal convoluted tubular injury scores/damage ([5]; oral high dose 100 mg/kg, preventive, p<0.0001 (FIG. 6A)): effective in lowering
tubular injury marker NGAL (urinary) ([5]; oral low dose 50 mg/kg, preventive, p<0.0001 (FIG. 5A)): effective in lowering
tubular injury/damage, histological images ([5]; oral route (FIG. 7C)): moderately ameliorated
BUN ([5]; therapeutic regimen, 10 mg/kg/iv at 1 hour, p<0.001 (FIG. 9B)): phenomenally reduced
BUN ([5]; therapeutic regimen, 10 mg/kg/iv at 4 hours, p<0.0001 (FIG. 9B)): phenomenally reduced
urinary NGAL ([5]; therapeutic regimen, 10 mg/kg/iv at 4 hours, p<0.01 (FIG. 9C)): phenomenally reduced
serum creatinine ([5]; therapeutic regimen, 10 mg/kg/iv single dose at 1 hour after ischemia): phenomenally reduced
serum creatinine ([5]; therapeutic regimen, 10 mg/kg/iv single dose at 4 hours after ischemia): phenomenally reduced

O=C(NCCO[N+](=O)[O-])c1cccnc1 [Nicorandil, reference compound]
proximal tubules, histological images ([5]; 10 mg/kg ip (FIG. 10D)): most all proximal tubules are healthy
serum creatinine compared to Group 2 ([5]; 10 mg/kg ip single dose 30 min prior to ischemia, p<0.0001 (FIG. 10A)): significantly reduced
ACR compared to Group 2 ([5]; 10 mg/kg ip single dose 30 min prior to ischemia, p<0.0001 (FIG. 10B)): significantly reduced
tubular injury/damage compared to Group 2 ([5]; 10 mg/kg ip single dose 30 min prior to ischemia, p<0.0001 (FIG. 10C)): significantly reduced
dose-proportionality of exposure from 40 mg to 80 mg (Cmax and AUC(0-tau)) [2]: proportional increase
AUC [6]: 101 (range of 122-323) hour·ng/m
Cmax [6]: 107 (range of 44-148) ng/mL
Tmax [6]: 0.43 (range 0.25-0.75) hours
activity in contrast induced nephropathy [7]: show activity
dose proportionality of peak (20-160 mg) and total (40-160 mg) exposure ([4]; nicorandil after Compound 8, Cmax and AUC(0-last)): slightly greater than proportional
